Test results as given in patent US10189843B2, “Fused pyrazole derivative having autotaxin inhibitory activity” (The University of Tokyo, priority 2014, dated 2019).

Target: T1, Human autotaxin enzyme (Homo sapiens, UniProt Q13822)
T1 construct: purchased R&D System
Assay: Evaluation of autotaxin inhibitor, Method C (18:0 Lyso PC substrate, choline assay, Resorufin fluorescence)
Assay type: biochemical
Details: Method C (Test Example 3), read-out: Inhibitory activity (enzyme inhibitory activity, IC50)
Protocol: Test Example 3 (Method C) Evaluation of Autotaxin Inhibitor
Solution B containing 100 mM Tris-HCl buffer (pH7.5), 150 mM NaCl, 5 mM MgCl2, and 0.05% Triton X-100 was prepared. Human autotaxin enzyme (purchased from R&D System) was diluted with Solution B, and 2.5 μl of which was added to a solution of test compound in DMSO. Furthermore, 2.5 μl of 200 μM 18:0 Lyso PC (purchased from Avanti Polar Lipids) in Solution B was added and allowed to react at room temperature for 2 hours. After completion of the reaction, 15 μl of the coline assay reagent (100 mM Tris-HCl buffer (pH7.5), 5 mM MgCl2, 77 μg/ml coline oxidase, 10 μg/ml peroxydase, 25 μM 10-acetyl-3,7-dihydroxyphenoxazine, and excess autotaxin inhibitor) was added and allowed to react at room temperature for 20 minutes. The fluorescent dye Resorufin, which was produced by the reaction, was detected. The fluorescence was detected using ViewLux (PerkinElmer, Inc.) with a excitation wavelength of 531 nm and a fluorescence wavelength of 598 nm.
The percent inhibition of the test compound was calculated by assuming the sample with no test compound as 0% inhibition and the sample with no enzyme as 100% inhibition, and the percent inhibitions at different concentrations of the test compound were plotted to obtain a concentration-dependent curve.

Compound	IC50
CCCCC1CN(CC2(c3ccc(OC)cc3)CC2)C(=O)c2cc(-c3ccc(Cl)cc3)nn21 (centres unmarked) [Compound I-0272]	≥ 1 µM
CCCCCC1CN(Cc2cccc(CC(=O)OCC)c2)C(=O)c2cc(-c3ccc(Cl)cc3)nn21 (centres unmarked) [Compound I-0125]	≥ 1 µM
CC(=O)Nc1cc(C(F)(F)F)ccc1-c1cc2n(n1)[C@@H](C)CN(Cc1ccc(C#N)cc1)C2=O [Compound I-0333]	0.01 to 0.1 µM
CCCCCC1CN(CC(=O)NCC(=O)O)C(=O)c2cc(-c3ccc(Cl)cc3)nn21 (centres unmarked) [Compound I-0059]	0.01 to 0.1 µM
CC(C)(O)CNC(=O)CN1CC(COCC(F)(F)F)n2nc(-c3ccc(Cl)cc3)cc2C1=O (centres unmarked) [Compound I-0315]	0.1 to 1 µM
CC(=O)NC1=C(c2cc3n(n2)[C@@H](C)CN(Cc2ccc(C#N)cc2)C3=O)C(=O)CC(C(F)(F)F)C1 (some centres unmarked) [Compound I-0368]	0.01 to 0.1 µM
CCCCC1CN(CC(=O)NCCCC#N)C(=O)c2cc(-c3ccc(Cl)cc3)nn21 (centres unmarked) [Compound I-0244]	0.1 to 1 µM
CNC(=O)Cc1cc(Cl)ccc1-c1cc2n(n1)[C@@H](C)CN(Cc1ccc(C#N)cc1)C2=O [Compound I-0336]	≥ 1 µM
CCCCC1CN(Cc2ccc(C#N)cc2)C(=O)c2cc(-c3ccc(Cl)cc3C=O)nn21 (centres unmarked) [Compound I-0204]	0.01 to 0.1 µM
CCCCCC1CN(CC(=O)N2CCCCC2)C(=O)c2cc(-c3ccc(Cl)cc3)nn21 (centres unmarked) [Compound I-0083]	0.1 to 1 µM
CCCCCC1CN(CC(=O)Nc2cccnc2)C(=O)c2cc(-c3ccc(Cl)cc3)nn21 (centres unmarked) [Compound I-0086]	0.1 to 1 µM
CCCCCC1CN(CC(=O)NC2CCC[C@@H]2C(=O)OCC)C(=O)c2cc(-c3ccc(Cl)cc3)nn21 (some centres unmarked) [Compound I-0051]	0.1 to 1 µM
CCCCCC1CN(Cc2cccc3c(C(=O)O)csc23)C(=O)c2cc(-c3ccc(Cl)cc3)nn21 (centres unmarked) [Compound I-0121]	0.01 to 0.1 µM
O=C(O)c1cccc(CN2CC(CO)n3nc(-c4ccc(Cl)cc4)cc3C2=O)c1 (centres unmarked) [Compound I-0174]	≥ 1 µM
CCCCC1CN(CC(=O)NCC(O)CO)C(=O)c2cc(-c3ccc(Cl)cc3)nn21 (centres unmarked) [Compound I-0219]	0.1 to 1 µM
CCCCC1CN(CC(=O)NCC#N)C(=O)c2cc(-c3ccc(Cl)cc3)nn21 (centres unmarked) [Compound I-0213]	0.01 to 0.1 µM
CCCCC1CN(CC(=O)NCCOCCO)C(=O)c2cc(-c3ccc(Cl)cc3)nn21 (centres unmarked) [Compound I-0212]	0.1 to 1 µM
CCCCCC1CN(Cc2ccc(C#N)cc2)C(=O)c2cc(C(=O)N3CCC(C#N)CC3)nn21 (centres unmarked) [Compound I-0180]	≥ 1 µM
CCCCC1CN(Cc2ccc(C#N)cc2)C(=O)c2cc(-c3ccc(S(F)(F)(F)(F)F)cc3)nn21 (centres unmarked) [Compound I-0372]	0.1 to 1 µM
CCCCC1CN(CC(=O)N(C)CC#N)C(=O)c2cc(-c3ccc(Cl)cc3)nn21 (centres unmarked) [Compound I-0208]	0.01 to 0.1 µM
O=C(O)C1CN(C(=O)CN2C(=O)c3cc(-c4ccc(Cl)cc4)nn3C3COCC32)C1 (centres unmarked) [Compound I-0029]	≥ 1 µM
COCc1cc(Cl)ccc1-c1cc2n(n1)[C@@H](C)CN(Cc1ccc(C#N)cc1)C2=O [Compound I-0329]	≥ 1 µM
CCCCC1CN(Cc2cncn2C)C(=O)c2cc(-c3ccc(Cl)cc3)nn21 (centres unmarked) [Compound I-0258]	0.1 to 1 µM

Compound	IC50
CCCCCC1CN(CC(=O)N2CCC(C(=O)OCC)CC2)C(=O)c2cc(-c3ccc(Cl)cc3)nn21 (centres unmarked) [Compound I-0004]	0.01 to 0.1 µM
CCCCC1CN(C2CCN(CC(F)(F)F)C2=O)C(=O)c2cc(-c3ccc(Cl)cc3)nn21 (centres unmarked) [Compound I-0264]	0.01 to 0.1 µM
CCCCCC1CN(CC(=O)OCC2CCCCN2)C(=O)c2cc(-c3ccc(Cl)cc3)nn21 (centres unmarked) [Compound I-0114]	≥ 1 µM
CCCCC1CN(CC(=O)NCC(O)C(F)(F)F)C(=O)c2cc(-c3ccc(Cl)cc3)nn21 (centres unmarked) [Compound I-0216]	0.1 to 1 µM
CCCCC1CN(Cc2ccc(C#N)cc2)C(=O)c2cc(-c3ccc(OC(F)(F)F)cc3CC#N)nn21 (centres unmarked) [Compound I-0192]	0.1 to 1 µM
O=C1NCC(COCC(F)(F)C(F)F)n2nc(-c3ccc(Cl)cc3)cc21 (centres unmarked) [Compound I-0196]	0.1 to 1 µM
CCCCCC1CN(CC(=O)N2CCCC2CCCC)C(=O)c2cc(-c3ccc(Cl)cc3)nn21 (centres unmarked) [Compound I-0079]	0.1 to 1 µM
CCCCCC1CN(Cc2cccc(C)c2)C(=O)c2cc(-c3ccc(Cl)cc3)nn21 (centres unmarked) [Compound I-0128]	≥ 1 µM
CCCCCC1CN(Cc2ccc(Oc3ccccc3)cc2)C(=O)c2cc(-c3ccc(Cl)cc3)nn21 (centres unmarked) [Compound I-0146]	≥ 1 µM
CCCCC1CN(CC(=O)N2CCCC[C@H]2C)C(=O)c2cc(-c3ccc(Cl)cc3)nn21 (some centres unmarked) [Compound I-0241]	0.1 to 1 µM
CCCCCC1CN(c2ccncc2)C(=O)c2cc(-c3ccc(Cl)cc3)nn21 (centres unmarked) [Compound I-0200]	≥ 1 µM
CCCCCC1CN(CC(=O)N2CCCCCC2)C(=O)c2cc(-c3ccc(Cl)cc3)nn21 (centres unmarked) [Compound I-0098]	0.1 to 1 µM
CCCCCC1CN(CC(=O)N2CCC(C)C2)C(=O)c2cc(-c3ccc(Cl)cc3)nn21 (centres unmarked) [Compound I-0074]	0.1 to 1 µM
CC(=O)Nc1cc(OC(F)(F)F)ccc1-c1cc2n(n1)[C@@H](C)CN(C[C@H]1CNC(=O)O1)C2=O [Compound I-0339]	< 0.01 µM
CCOC(=O)CN1CC(C)(C)n2nc(-c3ccc(Cl)cc3)cc2C1=O [Compound I-0014]	≥ 1 µM
CCCCC1CN(CC2CNC(=O)O2)C(=O)c2cc(-c3ccc(Cl)cc3)nn21 (centres unmarked) [Compound I-0266]	0.01 to 0.1 µM
C[C@H]1CN(Cc2cccc(C#N)c2)C(=O)c2cc(-c3ccc(Cl)cc3)nn21 [Compound I-0164]	0.1 to 1 µM
C[C@H]1CN(Cc2ccc(C#N)cc2)C(=O)c2cc(-c3ccc(Cl)cc3Br)nn21 [Compound I-0326]	≥ 1 µM
CCCCCC1CN(CC(=O)N2CCCC(C)C2)C(=O)c2cc(-c3ccc(Cl)cc3)nn21 (centres unmarked) [Compound I-0115]	0.1 to 1 µM
CCOC(=O)CN1CC(Cc2ccccc2)n2nc(-c3ccc(Cl)cc3)cc2C1=O (centres unmarked) [Compound I-0025]	0.1 to 1 µM
COC(=O)Nc1cc(Cl)ccc1-c1cc2n(n1)[C@@H](C)CN(CC(=O)N(C)CC#N)C2=O [Compound I-0363]	0.01 to 0.1 µM
CCCCC1CN(Cc2ccc(C#N)cc2)C(=O)c2cc(N3CC(c4ccccc4)C3)nn21 (centres unmarked) [Compound I-0303]	≥ 1 µM
CCCCC1CN(Cc2ccc(C#N)cc2)C(=O)c2cc(-c3ccc(C#N)cc3)nn21 (centres unmarked) [Compound I-0201]	0.01 to 0.1 µM

Compound	IC50
CCCCC1CN(CCNC(=O)OC(C)(C)C)C(=O)c2cc(-c3ccc(Cl)cc3)nn21 (centres unmarked) [Compound I-0265]	0.01 to 0.1 µM
O=C1NCC(COCc2ccccc2)n2nc(-c3ccc(Cl)cc3)cc21 (centres unmarked) [Compound I-0024]	≥ 1 µM
CC(=O)Nc1cc(C#N)ccc1-c1cc2n(n1)[C@@H](C)CN(C[C@H]1CNC(=O)O1)C2=O [Compound I-0338]	0.01 to 0.1 µM
CCCCC1CN(CC(=O)NCc2cc(=O)[nH]o2)C(=O)c2cc(-c3ccc(Cl)cc3)nn21 (centres unmarked) [Compound I-0233]	0.01 to 0.1 µM
CCCOCC1CN(CC(=O)O)C(=O)c2cc(-c3ccc(Cl)cc3)nn21 (centres unmarked) [Compound I-0253]	≥ 1 µM
CCCCC1CN(CC(=O)N(CCC#N)CCC#N)C(=O)c2cc(-c3ccc(Cl)cc3)nn21 (centres unmarked) [Compound I-0235]	0.01 to 0.1 µM
CCCCC1CN(C2CCCCC2=O)C(=O)c2cc(-c3ccc(Cl)cc3)nn21 (centres unmarked) [Compound I-0263]	0.1 to 1 µM
C[C@H]1CN(Cc2ccc(C#N)cc2)C(=O)c2cc(-c3ccc(Cl)cc3Nc3nccs3)nn21 [Compound I-0324]	≥ 1 µM
C[C@H]1CN(CC(=O)NC(Cc2ccccc2)C(=O)O)C(=O)c2cc(-c3ccc(Cl)cc3)nn21 (some centres unmarked) [Compound I-0160]	0.01 to 0.1 µM
N#Cc1ccc(CN2CC3CCCCCC(=O)Nc4cc(Cl)ccc4-c4cc(n3n4)C2=O)cc1 (centres unmarked) [Compound I-0355]	< 0.01 µM
CCCCC1CN(CC(=O)NC(C#N)C#N)C(=O)c2cc(-c3ccc(Cl)cc3)nn21 (centres unmarked) [Compound I-0231]	≥ 1 µM
CCCCCC1CN(CC(=O)O)C(=O)c2cc(-c3ccc(Cl)cc3)nn21 (centres unmarked) [Compound I-0003]	≥ 1 µM
C[C@H]1CN(Cc2ccc(C#N)cc2)C(=O)c2cc(-c3ccc(Cl)cc3CC#N)nn21 [Compound I-0300]	≥ 1 µM
CCCCC1CN(CC(=O)N[C@@H]2CCC[C@H]2O)C(=O)c2cc(-c3ccc(Cl)cc3)nn21 (some centres unmarked) [Compound I-0221]	0.1 to 1 µM
CCCCCC1CN(CC(=O)NCCCN(C)C)C(=O)c2cc(-c3ccc(Cl)cc3)nn21 (centres unmarked) [Compound I-0104]	≥ 1 µM
CCCCCC1CN(CC(=O)NC[C@H]2CC[C@H](C(=O)O)CC2)C(=O)c2cc(-c3ccc(Cl)cc3)nn21 (some centres unmarked) [Compound I-0054]	0.1 to 1 µM
N#Cc1ccc(CN2CC3CC/C=C\CC(=O)Nc4cc(Cl)ccc4-c4cc(n3n4)C2=O)cc1 (centres unmarked) [Compound I-0358]	0.01 to 0.1 µM
CCCCCC1CN(c2ccc(C(=O)O)cc2)C(=O)c2cc(-c3ccc(Cl)cc3)nn21 (centres unmarked) [Compound I-0179]	0.1 to 1 µM
CCCCCC1CN(Cc2ccccc2S(=O)(=O)N2CCOCC2)C(=O)c2cc(-c3ccc(Cl)cc3)nn21 (centres unmarked) [Compound I-0139]	≥ 1 µM
CCCCCC1CN(Cc2ccc(OC(C)=O)cc2)C(=O)c2cc(-c3ccc(Cl)cc3)nn21 (centres unmarked) [Compound I-0140]	≥ 1 µM
CCCCCC1CN(CC(=O)N2CCCC2C(=O)O)C(=O)c2cc(-c3ccc(Cl)cc3)nn21 (centres unmarked) [Compound I-0065]	0.01 to 0.1 µM
CCCCCC1CN(CC(=O)N(C)c2ccncc2)C(=O)c2cc(-c3ccc(Cl)cc3)nn21 (centres unmarked) [Compound I-0085]	≥ 1 µM
